# From paper PMC9833666, “Designing and identifying β-hairpin peptide macrocycles with antibiotic potential” (Science Advances, 2023)
# Read-outs that look alike come from different tables or passages of the source. Bridge positions count the residues as written; N and C are the ends. Ends that are not written are not given here. Peptide text beside a SMILES is read from it.
# Legend:
# E. coli W3110 = assay: Surface-localized antimicrobial display (SLAY), log2 fold change in reads; type: cell-based, Escherichia coli; conditions: 3 h 37°C; for l2FC_IPTG_15: induced (15 μM IPTG, low induction) vs uninduced; for l2FC_IPTG_100: induced (100 μM IPTG, high induction) vs uninduced
# Experimental: SLAY procedures have been detailed previously ([25], [26]). Briefly, 100 μl of E. coli W3110 frozen cells containing the pooled SynCH plasmid library were recovered in 10 ml of LB supplemented with carbenicillin (75 μg/ml) for 2 hours. The culture was then back-diluted to an OD of 0.05, and three triplicate 5-ml cultures were set up in LB supplemented with carbenicillin (75 μg/ml). Triplicate reactions included uninduced (0 μM IPTG), low induction (15 μM IPTG), and high induction (100 μM IPTG). All triplicate cultures were then grown for 3 hours at 37°C. Plasmids from each triplicate culture were isolated via Miniprep, and Illumina sequencing primers (see table S6) were used to produce an amplicon via PCR from plasmids from each culture containing a unique i7 barcode identifier. Amplicons were then gel extracted, cleaned, concentrated, and sent to Genewiz for next-generation sequencing by Illumina HiSeq technology with 30% added Phi-X DNA.
# Methods of SLAY analysis have been previously described elsewhere. Here, raw sequencing reads were trimmed of adapter sequences using Flexbar ([30]) and then assessed for quality via FastQC ([31]). Next, trimmed reads were mapped to a reference derived from all possible SynCH sequences using Kallisto ([32]). Last, log2 fold change estimates and other relevant statistics were calculated using DESeq2 ([33]).
# [1] = High-resolution LC-MS, percentage with intramolecular disulfide bond (%S-S); type: physicochemical
# Experimental: Stock peptides were diluted into PBS (pH 7.4) at 0.1 mg/ml in a volume of 150 μl and placed into 2-ml autosampler vials with small volume inserts (Fisherbrand, 03-391-8). Samples were separated by a C8 LC column, and an extracted ion chromatogram was generated for the most prevalent charge state isotopes. Mass spectra were generated for each extracted LC peak using an Agilent Technologies 6546 Accurate Mass quadrupole orthogonal acceleration–time-of-flight LC-MS instrument. Analysis was performed using Agilent MassHunter Qualitative software v10. The isotope distribution for each LC peak from each sample was compared to predicted distributions created using Agilent’s Isotope Distribution Calculator. Percentages of molecules with disulfide bonds was determined by comparing the area under the curve for each LC peak containing a disulfide bond over the total area of all relevant peaks (sum area %) and reported as a mean of three technical replicates ± 1 SD.
# Escherichia coli W3110 = type: cell-based; conditions: for Ec W3110 MIC MH: E. coli W3110, MH medium; for W3110 MIC MHII: E. coli W3110, MHII medium; for Ec W3110 MIC RPMI: E. coli W3110, RPMI medium
# [2] = test system: Acinetobacter baumannii AB5075; conditions: for AB5075 MIC FBS: 100% fetal bovine serum; for AB5075 MIC MH: Mueller-Hinton
# [3] = test system: Single-donor human red blood cells; assay: Hemolysis assay; type: cell-based; conditions: hemolysis at 128 µg/ml, fold change relative to SySA-5
# Outline: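 Peptides at 300 μg/ml (SySA library) or 128 μg/ml (SySA-5 optimization library) were incubated in triplicate with washed single-donor RBCs (1 × 10^9 cells/ml) for 3 h at 37 °C. Supernatant A540 was background-normalized to PBS and expressed relative to 1% Triton X-100 (100% hemolysis).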
Compound,l2FC_IPTG_15 (E. coli W3110),l2FC_IPTG_100 (E. coli W3110),AB5075 MIC FBS ([2]; replicate 1),AB5075 MIC FBS ([2]; replicate 2),AB5075 MIC FBS ([2]; replicate 3),AB5075 MIC MH ([2]; replicate 1),AB5075 MIC MH ([2]; replicate 2),AB5075 MIC MH ([2]; replicate 3),Fold Change Hemolysis [3],further results
CVTIRVDNGGGGLRITLQVC (disulfide 1-20 (inferred)),-0.299,0.025,–,–,–,–,–,–,–,–
CC(C)C[C@@H]1NC(=O)[C@H](CO)NC(=O)[C@H](C(C)C)NC(=O)[C@H](CCCCN)NC(=O)[C@H](C(C)C)NC(=O)[C@H](CCCNC(=N)N)NC(=O)[C@H](CCCNC(=N)N)NC(=O)[C@H](CCCNC(=N)N)NC(=O)CNC(=O)[C@H](CC(N)=O)NC(=O)[C@H](CC(N)=O)NC(=O)[C@H](CC(C)C)NC(=O)[C@H](CCCNC(=N)N)NC(=O)[C@H](C(C)C)NC(=O)[C@H](CCCNC(=N)N)NC(=O)[C@H](C(C)C)NC(=O)[C@@H](N)CSSC[C@@H](C(=O)O)NC(=O)[C@H](C(C)C)NC(=O)[C@H](CCC(N)=O)NC1=O [SySA-26] (H-CVRVRLNNGRRRVKVSLQVC-OH; disulfide 1-20; N-terminus and C-terminus assumed),–,–,–,–,–,–,–,–,–,%S-S [1]: 100%; Ec W3110 MIC MH (Escherichia coli W3110): 16 µg/mL; W3110 MIC MHII (Escherichia coli W3110): > 128 µg/mL; Ec W3110 MIC RPMI (Escherichia coli W3110): 16 µg/mL; W3110 MIC MH (Escherichia coli W3110): 16 µg/mL; W3110 MIC RPMI (Escherichia coli W3110): 16 µg/mL
CRIKIDVDDGRRRVRLELQC (disulfide 1-20 (inferred)),0.041,0.249,–,–,–,–,–,–,–,–
CLRIRVNDRRRGVKITLEVC (disulfide 1-20 (inferred)),0.457,0.630,–,–,–,–,–,–,–,–
CC[C@H](C)[C@@H]1NC(=O)[C@H](CCCCN)NC(=O)[C@H](CC(C)C)NC(=O)CNC(=O)[C@H](CCCNC(=N)N)NC(=O)[C@H](CCCNC(=N)N)NC(=O)[C@H](CCCNC(=N)N)NC(=O)[C@H](CC(N)=O)NC(=O)[C@H](CC(N)=O)NC(=O)[C@H](CC(C)C)NC(=O)[C@H](CCCNC(=N)N)NC(=O)[C@H](C(C)C)NC(=O)[C@H](CCCNC(=N)N)NC(=O)[C@H](CC(C)C)NC(=O)[C@@H](N)CSSC[C@@H](C(=O)O)NC(=O)[C@H](C(C)C)NC(=O)[C@H](CCC(N)=O)NC(=O)[C@H](CC(C)C)NC(=O)[C@H](CO)NC1=O [SySA-61] (H-CLRVRLNNRRRGLKISLQVC-OH; disulfide 1-20; N-terminus and C-terminus assumed),–,–,–,–,–,–,–,–,–,%S-S [1]: 91.5%; Ec W3110 MIC MH (Escherichia coli W3110): 32 µg/mL; W3110 MIC MHII (Escherichia coli W3110): > 128 µg/mL; Ec W3110 MIC RPMI (Escherichia coli W3110): 8 µg/mL; W3110 MIC MH (Escherichia coli W3110): 32 µg/mL; W3110 MIC RPMI (Escherichia coli W3110): 8 µg/mL
"CC(C)C[C@@H]1NC(=O)[C@H](CO)NC(=O)[C@H](C(C)C)NC(=O)[C@H](CCCCN)NC(=O)[C@@H]2CSSC[C@H](NC(=O)[C@H](CC(N)=O)NC(=O)[C@H](CC(C)C)NC(=O)[C@H](CCCNC(=N)N)NC(=O)[C@H](C(C)C)NC(=O)[C@H](CCCNC(=N)N)NC(=O)[C@@H](N)CSSC[C@@H](C(=O)O)NC(=O)[C@H](CCC(N)=O)NC1=O)C(=O)N[C@@H](CCCNC(=N)N)C(=O)N[C@@H](CCCNC(=N)N)C(=O)NCC(=O)N[C@@H](CCCNC(=N)N)C(=O)N2 [SySA-5.15] (H-CRVRLNCRRGRCKVSLQC-OH; disulfide 1-18, 7-12 (inferred); N-terminus and C-terminus assumed)",–,–,>128 µg/mL,>128 µg/mL,>128 µg/mL,16 µg/mL,16 µg/mL,16 µg/mL,1.3,–
"CC(C)C[C@@H]1NC(=O)[C@H](CCCNC(=N)N)NC(=O)[C@H](C(C)C)NC(=O)[C@H](CCCCN)NC(=O)[C@H](C(C)C)NC(=O)[C@@H]2CSSC[C@H](NC(=O)[C@H](CC(C)C)NC(=O)[C@H](CCCNC(=N)N)NC(=O)[C@H](C(C)C)NC(=O)[C@H](CCCNC(=N)N)NC(=O)[C@@H](N)CSSC[C@@H](C(=O)O)NC(=O)[C@H](CCCNC(=N)N)NC1=O)C(=O)N[C@@H](CCCNC(=N)N)C(=O)N[C@@H](CCCNC(=N)N)C(=O)N[C@@H](CCCNC(=N)N)C(=O)N[C@@H](CCCNC(=N)N)C(=O)N2 [SySA-5.9] (H-CRVRLCRRRRCVKVRLRC-OH; disulfide 1-18, 6-11 (inferred); N-terminus and C-terminus assumed)",–,–,>128 µg/mL,>128 µg/mL,>128 µg/mL,8 µg/mL,8 µg/mL,8 µg/mL,0.6,–
"CC(C)C[C@@H]1NC(=O)[C@H](CCCNC(=N)N)NC(=O)[C@H](C(C)C)NC(=O)[C@H](CCCNC(=N)N)NC(=O)[C@H](CC(C)C)NC(=O)[C@@H](N)CSSC[C@@H](C(=O)O)NC(=O)[C@H](C(C)C)NC(=O)[C@H](CCCNC(=N)N)NC(=O)[C@H](CC(C)C)NC(=O)[C@H](CCCNC(=N)N)NC(=O)[C@H](C(C)C)NC(=O)[C@H](CCCCN)NC(=O)[C@H](C(C)C)NC(=O)[C@@H]2CSSC[C@H](NC1=O)C(=O)N[C@@H](CC(N)=O)C(=O)N[C@@H](CCCNC(=N)N)C(=O)N[C@@H](CCCNC(=N)N)C(=O)N[C@@H](CCCNC(=N)N)C(=O)N2 [SySA-5.3] (H-CLRVRLCNRRRCVKVRLRVC-OH; disulfide 1-20, 7-12 (inferred); N-terminus and C-terminus assumed)",–,–,128 µg/mL,128 µg/mL,128 µg/mL,8 µg/mL,8 µg/mL,8 µg/mL,1.8,–
CLRIRVDDRRRRVRITLQVC (disulfide 1-20 (inferred)),0.055,0.322,–,–,–,–,–,–,–,–
"CC(C)C[C@@H]1NC(=O)[C@H](CO)NC(=O)[C@H](C(C)C)NC(=O)[C@H](CCCCN)NC(=O)[C@@H]2CSSC[C@H](NC(=O)[C@H](CCCNC(=N)N)NC(=O)[C@H](CC(C)C)NC(=O)[C@H](CCCNC(=N)N)NC(=O)[C@H](C(C)C)NC(=O)[C@H](CCCNC(=N)N)NC(=O)[C@@H](N)CSSC[C@@H](C(=O)O)NC(=O)[C@H](CCCNC(=N)N)NC1=O)C(=O)N[C@@H](CCCNC(=N)N)C(=O)N[C@@H](CCCNC(=N)N)C(=O)NCC(=O)N[C@@H](CCCNC(=N)N)C(=O)N2 [SySA-5.16] (H-CRVRLRCRRGRCKVSLRC-OH; disulfide 1-18, 7-12 (inferred); N-terminus and C-terminus assumed)",–,–,>128 µg/mL,>128 µg/mL,>128 µg/mL,32 µg/mL,64 µg/mL,32 µg/mL,1.3,–
CC(C)C[C@@H]1NC(=O)[C@H](CCCNC(=N)N)NC(=O)[C@H](C(C)C)NC(=O)[C@H](CCCCN)NC(=O)[C@H](CCCNC(=N)N)NC(=O)[C@H](CCCNC(=N)N)NC(=O)[C@H](CCCNC(=N)N)NC(=O)[C@H](CCCNC(=N)N)NC(=O)[C@H](CCCNC(=N)N)NC(=O)[C@H](CC(C)C)NC(=O)[C@H](CCCNC(=N)N)NC(=O)[C@H](C(C)C)NC(=O)[C@H](CCCNC(=N)N)NC(=O)[C@H](CC(C)C)NC(=O)[C@@H](N)CSSC[C@@H](C(=O)O)NC(=O)[C@H](C(C)C)NC(=O)[C@H](CCCNC(=N)N)NC1=O [SySA-5.12] (H-CLRVRLRRRRRKVRLRVC-OH; disulfide 1-18),–,–,–,–,–,–,–,–,3.7,AB5075 MIC FBS ([2]; median of triplicate): > 128 µg/mL; AB5075 MIC MH ([2]; median of triplicate): 4 µg/mL
CRIKINIDDRGGTVKLEVQC (disulfide 1-20 (inferred)),-0.180,-0.210,–,–,–,–,–,–,–,–
"CC(C)C[C@@H]1NC(=O)[C@H](CCCNC(=N)N)NC(=O)[C@H](C(C)C)NC(=O)[C@@H]2CSSC[C@H](NC(=O)[C@H](CC(C)C)NC(=O)[C@H](CCCNC(=N)N)NC(=O)[C@H](C(C)C)NC(=O)[C@H](CCCNC(=N)N)NC(=O)[C@H](CC(C)C)NC(=O)[C@@H](N)CSSC[C@@H](C(=O)O)NC(=O)[C@H](C(C)C)NC(=O)[C@H](CCCNC(=N)N)NC1=O)C(=O)N[C@@H](CCCNC(=N)N)C(=O)N[C@@H](CCCNC(=N)N)C(=O)N[C@@H](CCCNC(=N)N)C(=O)N2 [SySA-5.22] (H-CLRVRLCRRRCVRLRVC-OH; disulfide 1-17, 7-11 (inferred); N-terminus and C-terminus assumed)",–,–,64 µg/mL,64 µg/mL,64 µg/mL,32 µg/mL,8 µg/mL,32 µg/mL,2.1,–
